Experimental data taken from patent US7897723B2, “ErbB receptor-derived peptide fragments” (Københavns Universitet, priority 2006, dated 2011).
Bridges are numbered along the chain shown (N, C = ends). Roman numbers before positions name the chains, in order. Where no end group is shown, it is not given here.

Legend:
L929 cells = assay: Cell proliferation (BrdU incorporation); type: cell-based; settings: L929 cells
Procedure: 2000 L929 cells (ECACC no: 85011425) per well were seeded in a 96 well plate in full medium (containing 10% foetal calf serum) or starvation medium (serum-free). Peptides, ErbB1 kinase inhibitor PD153035 (Calbiochem), and EGF (Sigma-Aldrich) were added immediately after seeding of the cells (for experiments done in full serum) or after 8 hours of incubation (for experiments done in starvation medium) in the concentrations indicated in figures. Cells were grown for 6 hours, then 10 μM bromodeoxyuridine (BrdU) was added, and cells were grown for additional 18 hours. Then, BrdU incorporation in the cells was assayed using the Biotrak ELISA System, version 2 from Amersham Biosciences Europe GmbH (Buckinghamshire, UK) following the manufacturer's protocol.

ErbB1 = ErbB1 (Homo sapiens, UniProt P00533); assay: ErbB receptor phosphorylation, HN5 cells; type: cell-based; parameters: the ErbB1 overexpressing human head and neck cancer cell line HN5; endogenous in cells; host or cells: HN5 human head and neck cancer cells; settings: 100 μM peptide for 30 min, 10 ng/ml EGF for 10 min (FIG. 8)
Procedure: The cells employed for this assay were NR6 wtEGFR cells, which are fibroblastoid cells stably transfected with ErbB1, and human head and neck tumor-derived HN5 cell. Confluent NR6 wtEGFR or HN5 cells were treated with peptide in the indicated concentrations for 30 min, then stimulated with 10 ng/ml EGF (Sigma-Aldrich, St. Louis, Mo., USA) for 10 min. Cells were lysed in lysis buffer (1% (v/v) Triton X-100, 150 mM NaCl, 10 mM Tris pH 7.4, 1 mM EDTA, 1 mM EGTA, 0.5% (v/v) NP-40, phosphatase inhibitors (Phosphatase Inhibitor Cocktail Set II from Calbiochem, La Jolla, Calif., USA) and protease inhibitors (Complete™ Protease Inhibitor Cocktail from Boehringer Mannheim Biochemica, Mannheim, Germany)), and cleared lysate samples containing equal amounts of total protein (as determined by a bicinchoninic acid assay (Pierce, Rockford, Ill., USA)) were subjected in duplicates to 4-12% SDS-PAGE and immunoblotting. One membrane was probed with anti-phospho-EGFR (phosphotyrosine 1068) antibody (Cell Signaling Technology, Danvers, Mass., USA), the other with anti-EGFR antibody (Cell Signaling Technology). Detection was carried out using horseradish peroxidase (HRP)-conjugated secondary antibodies (DAKO, Denmark) and enhanced chemiluminiscence (Pierce). The intensity of bands was quantified using densitometric analysis employing the software package GeneTools (Syngene, Cambridge, UK).

HN5 cells = assay: Cell viability / cell growth (MTS staining); type: cell-based, human; settings: absence and presence of EGF, absence and presence of serum (FIGS. 6A and B)
Procedure: 2000 HN5 cells per well were seeded in a 96 well plate in full medium (containing 10% fetal calf serum) or starvation medium (serum-free). After 12 hours of incubation, peptides or ErbB1 kinase inhibitor PD153035 (Calbiochem) and/or EGF (Sigma-Aldrich) were added in the concentrations indicated in figures. Cells were grown for 72 hours, then 20 μl MTS One Solution Reagent (Promega, Madison, Wis., USA) were added per 100 μl culture medium in each well, and the plates were incubated for 1-2 hours at 37° C., followed by absorbance measurements at 490 nm.

[1] = target: T1, extracellular part of human ErbB4 (Fc chimeric protein) (Homo sapiens, UniProt Q15303); assay: Surface plasmon resonance (SPR) binding analysis, ErbB4; settings: peptide immobilized on sensor chip, mean ± SEM
T1 construct: the Fc protein fused to the extracellular parts of human ErbB2, ErbB3 or ErbB4; purchased R&D Systems Europe (Abingdon, UK)
T1 sequence (Q15303 26-651 limits assumed): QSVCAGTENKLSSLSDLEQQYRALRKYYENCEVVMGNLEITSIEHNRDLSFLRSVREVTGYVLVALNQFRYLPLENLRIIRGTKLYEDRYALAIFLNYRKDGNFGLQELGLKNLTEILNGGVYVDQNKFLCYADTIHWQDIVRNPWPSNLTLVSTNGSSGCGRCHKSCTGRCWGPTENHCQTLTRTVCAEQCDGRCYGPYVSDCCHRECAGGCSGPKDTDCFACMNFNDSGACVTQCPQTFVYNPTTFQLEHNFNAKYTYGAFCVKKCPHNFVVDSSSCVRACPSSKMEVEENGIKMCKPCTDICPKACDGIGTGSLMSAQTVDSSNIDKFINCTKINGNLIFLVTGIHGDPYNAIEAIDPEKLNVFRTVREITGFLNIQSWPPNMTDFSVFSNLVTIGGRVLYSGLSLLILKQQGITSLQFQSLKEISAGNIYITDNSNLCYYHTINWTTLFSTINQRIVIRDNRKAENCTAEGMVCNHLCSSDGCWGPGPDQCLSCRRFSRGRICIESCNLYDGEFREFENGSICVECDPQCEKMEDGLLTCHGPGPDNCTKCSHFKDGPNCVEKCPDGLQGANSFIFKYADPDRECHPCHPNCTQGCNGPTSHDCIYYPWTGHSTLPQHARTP
Procedure: (§1) Binding analyses were performed with the surface plasmon resonance (SPR)-based biosensor instrument BIAcore2000 (BIAcore AB, Uppsala, Sweden), at 25° C. using ready-made HBS-EP buffer (BIAcore AB) as running buffer. Peptides were immobilized on the surface of a CM5 sensor chip (BIAcore AB) using an amine coupling kit (Biosensor AB, Uppsala, Sweden) according to the manufacturer's instructions, at a flow rate of 5 μl/min. Briefly, carboxyl groups on the sensor chip surface were activated by injection of 35 μl activation solution followed by injection of peptide (50 μg/ml peptide in HBS-EP buffer, pH 7.4) until the desired level of immobilized peptide was reached. Unreacted peptide was washed out and unreacted activated groups were blocked by the injection of 35 μl 1 M ethanolamine. […] A reference surface was generated simultaneously under the same conditions but without peptide injection and used as a blank chip control. ErbB receptor proteins were injected at various concentrations at a flow rate of 20 μl/min, and binding to the peptides immobilized on the chip was measured in real-time. The curve corresponding to the difference between signals on flow cells with immobilized peptide and the signal on the blank flow cell was used for analysis. […] Data were analyzed by nonlinear curve fitting using the manufacturer' software. […]

[2] = target: T2, extracellular part of human ErbB2 (Fc chimeric protein) (Homo sapiens, UniProt P04626); assay: Surface plasmon resonance (SPR) binding analysis, ErbB2; settings: peptide immobilized on sensor chip, mean ± SEM
T2 construct: the Fc protein fused to the extracellular parts of human ErbB2, ErbB3 or ErbB4; purchased R&D Systems Europe (Abingdon, UK)
T2 sequence (P04626 23-652 limits assumed, change not shown): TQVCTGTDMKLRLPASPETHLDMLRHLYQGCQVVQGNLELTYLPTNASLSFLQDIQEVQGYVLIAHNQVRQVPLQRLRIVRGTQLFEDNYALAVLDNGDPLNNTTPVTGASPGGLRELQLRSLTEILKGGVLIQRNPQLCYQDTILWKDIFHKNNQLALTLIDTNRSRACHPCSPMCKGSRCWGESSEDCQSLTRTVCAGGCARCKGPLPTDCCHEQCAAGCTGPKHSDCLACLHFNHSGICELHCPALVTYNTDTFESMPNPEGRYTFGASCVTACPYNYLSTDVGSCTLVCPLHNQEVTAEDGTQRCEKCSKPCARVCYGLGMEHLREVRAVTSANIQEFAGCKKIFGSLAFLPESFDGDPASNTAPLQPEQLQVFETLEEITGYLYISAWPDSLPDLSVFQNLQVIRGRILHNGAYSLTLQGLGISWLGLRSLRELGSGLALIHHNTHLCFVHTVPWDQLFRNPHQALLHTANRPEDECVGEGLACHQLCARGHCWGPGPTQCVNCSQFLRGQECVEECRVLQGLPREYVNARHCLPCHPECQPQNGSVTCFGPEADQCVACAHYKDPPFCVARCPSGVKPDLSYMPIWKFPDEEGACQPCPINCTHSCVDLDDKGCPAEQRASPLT
Procedure: as §1

[3] = full medium, BrdU incorporation (FIG. 2, FIG. 3)
[4] = starvation medium, 10 or 100 ng/ml EGF, BrdU incorporation (FIG. 4)

Molecule | effect on EGF-induced cell proliferation (L929 cells; [3]) | effect on HN5 cell growth (HN5 cells) | effect on EGF-induced cell proliferation (L929 cells; [4]) | KD for binding to ErbB4 [1] | KD for binding to ErbB2 [2] | further results
VTYNTDTFESMPNPEGR (Inherbin 2 peptide) [Inherbin2] | able to inhibit EGF-induced cell proliferation significantly | – | – | – | – | effect on EGF-induced ErbB1 phosphorylation (ErbB1): not statistically significant
KHKLPYNFNLETTVQPL (also: tetrameric dendrimer on lysine backbone) [Scr-Inherbin3d, reference compound] | – | no significant effects on HN5 cell growth | – | – | – | –
COc1cc2ncnc(Nc3cccc(Br)c3)c2cc1OC [PD153035, reference compound] | – | strongly inhibited growth of the cells both in absence and presence of EGF-stimulation and in the absence and presence of serum | blocked cell proliferation induced by stimulation with either 10 or 100 ng/ml EGF | – | – | –
Inherbin3n: truncated peptide constituting the N-terminal half of the Inherbin3 peptide (possibly B3dln, SEQ ID NO: 36) (PLVYNKLT; B3dln peptide) | inhibited EGF-induced cell proliferation to the same extent as Inherbin3 | – | – | – | – | –
I: H-MLYNPTTYQMDVNPEGKKK / II: H-MLYNPTTYQMDVNPEGKK / III: H-MLYNPTTYQMDVNPEGK / IV: H-MLYNPTTYQMDVNPEGK (amide I:18-IV:C, I:19-II:C, II:18-III:C) [Inherbin 1DL, MLYNPTTYQMDVNPEGK] | – | – | – | No binding | No binding | –
I: LVYNKLTFQLEPNPHTKKK / II: LVYNKLTFQLEPNPHTKK / III: LVYNKLTFQLEPNPHTK / IV: LVYNKLTFQLEPNPHTK (amide I:18-IV:C, I:19-II:C, II:18-III:C) [Inherbin3d] | – | – | inhibited EGF-induced cell proliferation | No binding | No binding | peptide doses that significantly inhibited cell proliferation (L929 cells; proliferation induced by either 10 or 100 ng/ml EGF (FIG. 4)): ≥ 0.6 µM
